From PubChem BioAssay AID248 (DTP/NCI, 2004)
Values joined by “and” are separate entries in the source; they are usually repeats but may differ in a detail not shown here. Equal entries are not always repeated. Inconclusive results and toxic doses are left out.

Tested on: L1210 leukemia ip in BDF1 mice, survival T/C
Test: NCI In Vivo Anticancer Drug Screen. Data for tumor model L1210 Leukemia (intraperitoneal) in B6D2F1 (BDF1) mice
Settings: endpoint: mean survival time, higher = longer survival
Method in brief: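 Each compound was tested against a transplantable tumor grown in mice. The endpoint was survival, with treated animals benchmarked against vehicle controls as a simple ratio.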

[1] = dose: 100.0 mg/kg/injection, schedule: Q04DX002 (ip), vehicle: saline with Tween-80
[2] = dose: 100.0 mg/kg/injection, schedule: Q04DX003 (ip), vehicle: Klucel (hydroxypropylcellulose) (HPC)
[3] = dose: 200.0 mg/kg/injection, schedule: Q04DX003 (ip), vehicle: Klucel (hydroxypropylcellulose) (HPC)
[4] = dose: 400.0 mg/kg/injection, schedule: Q04DX003 (ip), vehicle: Klucel (hydroxypropylcellulose) (HPC)
[5] = dose: 50.0 mg/kg/injection, schedule: Q01DX001 (ip), vehicle: Klucel (hydroxypropylcellulose) (HPC)
[6] = dose: 100.0 mg/kg/injection, schedule: Q01DX001 (ip), vehicle: Klucel (hydroxypropylcellulose) (HPC)
[7] = dose: 50.0 mg/kg/injection, schedule: Q01DX001 (ip), vehicle: saline
[8] = dose: 100.0 mg/kg/injection, schedule: Q01DX001 (ip), vehicle: saline
[9] = dose: 200.0 mg/kg/injection, schedule: Q01DX001 (ip), vehicle: saline
[10] = dose: 100.0 mg/kg/injection, schedule: Q04DX003 (ip), vehicle: saline
[11] = dose: 50.0 mg/kg/injection, schedule: Q01DX001 (ip), vehicle: carboxymethylcellulose (CMC)
[12] = dose: 100.0 mg/kg/injection, schedule: Q01DX001 (ip), vehicle: carboxymethylcellulose (CMC)
[13] = dose: 200.0 mg/kg/injection, schedule: Q01DX001 (ip), vehicle: carboxymethylcellulose (CMC)
[14] = dose: 400.0 mg/kg/injection, schedule: Q01DX001 (ip), vehicle: carboxymethylcellulose (CMC)
[15] = dose: 100.0 mg/kg/injection, schedule: Q01DX009 (ip), vehicle: saline with Tween-80
[16] = dose: 200.0 mg/kg/injection, schedule: Q01DX009 (ip), vehicle: saline with Tween-80
[17] = dose: 400.0 mg/kg/injection, schedule: Q01DX009 (ip), vehicle: saline with Tween-80
[18] = dose: 400.0 mg/kg/injection, schedule: Q01DX001 (ip), vehicle: saline

With `CCC(C)NC(=O)/C=C\C(=O)O` (centres undefined) the T/C [1] was 95 % of control, the T/C (dose: 200.0 mg/kg/injection, schedule: Q04DX002 (ip), vehicle: saline with Tween-80) was 92 % of control and the T/C (dose: 400.0 mg/kg/injection, schedule: Q04DX002 (ip), vehicle: saline with Tween-80) was 100 % of control.
In the case of `CCOC(OCC)C(=O)C(C#N)c1ccc(C#N)cc1` (centres undefined), the T/C (dose: 3.12 mg/kg/injection, schedule: Q01DX009 (ip), vehicle: DMSO) is reported as 90 % of control, the T/C (dose: 6.25 mg/kg/injection, schedule: Q01DX009 (ip), vehicle: DMSO) is reported as 88 % of control and the T/C (dose: 12.5 mg/kg/injection, schedule: Q01DX009 (ip), vehicle: DMSO) is reported as 92 % of control and 88 % of control.
With `CS(=O)(=O)CC(=O)c1ccc(O)cc1O` the T/C (dose: 100.0 mg/kg/injection, schedule: Q01DX001 (ip), vehicle: saline with Tween-80) was 106 % of control, the T/C (dose: 200.0 mg/kg/injection, schedule: Q01DX001 (ip), vehicle: saline with Tween-80) was 103 % of control and the T/C (dose: 400.0 mg/kg/injection, schedule: Q01DX001 (ip), vehicle: saline with Tween-80) was 95 % of control.
For `COc1ccc(CCNC(=O)c2ccc(Cl)c(Cl)c2)cc1OC`, the T/C (dose: 25.0 mg/kg/injection, schedule: Q04DX002 (ip), vehicle: saline with Tween-80) was 100 % of control, the T/C (dose: 50.0 mg/kg/injection, schedule: Q04DX002 (ip), vehicle: saline with Tween-80) was 96 % of control and the T/C [1] was 106 % of control and 107 % of control.
In the case of `CC1(C)C2CC3C(=CCC4C(=O)C=CC(=O)C43)C1C2` (centres undefined), the T/C [2] is reported as 95 % of control, the T/C [3] is reported as 93 % of control and the T/C [4] is reported as 95 % of control.
In the case of `CC(=Nc1cc(C)ccc1C)c1c(O)cc(C)oc1=O`, the T/C (dose: 100.0 mg/kg/injection, schedule: Q01DX009 (ip), vehicle: Klucel (hydroxypropylcellulose) (HPC)) is reported as 97 % of control, the T/C (dose: 200.0 mg/kg/injection, schedule: Q01DX009 (ip), vehicle: Klucel (hydroxypropylcellulose) (HPC)) is reported as 97 % of control and the T/C (dose: 400.0 mg/kg/injection, schedule: Q01DX009 (ip), vehicle: Klucel (hydroxypropylcellulose) (HPC)) is reported as 103 % of control.
`Cc1cc2nc(CBr)c(CBr)nc2cc1C` was tested, and the T/C (dose: 3.12 mg/kg/injection, schedule: Q01DX009 (ip), vehicle: acetone) was 100 % of control, the T/C (dose: 6.25 mg/kg/injection, schedule: Q01DX009 (ip), vehicle: acetone) was 94 % of control and the T/C (dose: 6.25 mg/kg/injection, schedule: Q04DX003 (ip), vehicle: Klucel (hydroxypropylcellulose) (HPC)) was 95 % of control. The T/C (dose: 12.5 mg/kg/injection, schedule: Q04DX003 (ip), vehicle: Klucel (hydroxypropylcellulose) (HPC)) was 101 % of control, the T/C (dose: 12.5 mg/kg/injection, schedule: Q04DX003 (ip), vehicle: saline with Tween-80) was 98 % of control and the T/C (dose: 25.0 mg/kg/injection, schedule: Q04DX003 (ip), vehicle: Klucel (hydroxypropylcellulose) (HPC)) was 93 % of control.
With `O=c1c(Cl)c(C(Cl)(Cl)Cl)n(O)c2ccccc12` the T/C (dose: 6.25 mg/kg/injection, schedule: Q01DX001 (ip), vehicle: Klucel (hydroxypropylcellulose) (HPC)) was 104 % of control, the T/C (dose: 12.5 mg/kg/injection, schedule: Q01DX001 (ip), vehicle: Klucel (hydroxypropylcellulose) (HPC)) was 104 % of control and the T/C (dose: 25.0 mg/kg/injection, schedule: Q01DX001 (ip), vehicle: Klucel (hydroxypropylcellulose) (HPC)) was 98 % of control. For the same compound, the T/C [5] was 103 % of control and the T/C [6] was 95 % of control.
With `CC(C)/C=N/NP(Br)(c1ccccc1)(c1ccccc1)c1ccccc1` the T/C (dose: 75.0 mg/kg/injection, schedule: Q01DX001 (ip), vehicle: carboxymethylcellulose (CMC)) was 93 % of control, the T/C (dose: 150.0 mg/kg/injection, schedule: Q01DX001 (ip), vehicle: carboxymethylcellulose (CMC)) was 95 % of control and the T/C (dose: 300.0 mg/kg/injection, schedule: Q01DX001 (ip), vehicle: carboxymethylcellulose (CMC)) was 102 % of control.
With `Cc1cc2nc(CCl)[nH]c2cc1C` the T/C [7] was 106 % of control, the T/C [8] was 108 % of control and the T/C [9] was 112 % of control.
`CCOC(=N)CCl` was tested, and the T/C (dose: 50.0 mg/kg/injection, schedule: Q04DX003 (ip), vehicle: saline) was 101 % of control and the T/C [10] was 95 % of control.
With `NC(=O)Nc1ccc2c(c1)Cc1ccccc1-2` the T/C [11] was 100 % of control, the T/C [12] was 96 % of control and the T/C [13] was 100 % of control. For the same compound, the T/C [14] was 102 % of control.
For `O=C1CCC(N2C(=O)C3C(C2=O)C2(Cl)C(Cl)=C(Cl)C3(Cl)C2(Cl)Cl)C(=O)N1` (centres undefined), the T/C [10] was 94 % of control and the T/C (dose: 200.0 mg/kg/injection, schedule: Q04DX003 (ip), vehicle: saline) was 97 % of control.
With `O=[N+]([O-])/C=C/c1c[nH]c2ccccc12` the T/C (dose: 100.0 mg/kg/injection, schedule: Q04DX003 (ip), vehicle: saline with Tween-80) was 92 % of control, the T/C (dose: 200.0 mg/kg/injection, schedule: Q04DX003 (ip), vehicle: saline with Tween-80) was 106 % of control and the T/C (dose: 400.0 mg/kg/injection, schedule: Q04DX003 (ip), vehicle: saline with Tween-80) was 103 % of control.
For `CCCCCCCCCCCCOCN1C(=O)N(COCCCCCCCCCCCC)C(=O)C(CC)(c2ccccc2)C1=O`, the T/C [15] was 97 % of control, the T/C [16] was 94 % of control and the T/C [17] was 94 % of control.
In the case of `COc1cccc(C2N(Cc3ccc(OC)cc3OC)CCCN2Cc2ccc(OC)cc2OC)c1`, the T/C [7] is reported as 89 % of control, the T/C [8] is reported as 96 % of control and the T/C [9] is reported as 91 % of control. The T/C [18] was 96 % of control.
In the case of `Clc1ccc2[nH]c(-c3ccccc3)c(-c3ccccc3)c2c1`, the T/C [8] is reported as 92 % of control, the T/C (dose: 100.0 mg/kg/injection, schedule: Q01DX009 (ip), vehicle: acetone) is reported as 102 % of control and the T/C [9] is reported as 89 % of control. The T/C (dose: 200.0 mg/kg/injection, schedule: Q01DX009 (ip), vehicle: acetone) was 102 % of control and the T/C [18] was 96 % of control.
With `COC(=O)c1cc(=O)c2c(=O)[nH]c(=O)[nH]c2[nH]1` the T/C [2] was 101 % of control, the T/C [3] was 95 % of control and the T/C [4] was 100 % of control.
With `CC(O)C[P+](c1ccccc1)(c1ccccc1)c1ccccc1` (centres undefined) the T/C [8] was 110 % of control and the T/C [9] was 96 % of control.
For `Cc1ccc(S(=O)(=O)N(C)CCCCC(=O)O)cc1`, the T/C [15] was 90 % of control, the T/C [16] was 104 % of control and the T/C [17] was 93 % of control.
For `CC(=O)OC1C(C)OC(n2cnc3c(=O)[nH]cnc32)C1OC(C)=O` (centres undefined), the T/C [11] was 106 % of control, the T/C [12] was 106 % of control and the T/C [13] was 108 % of control. The T/C [14] was 101 % of control.
`O=P1(NCCCl)OCCC(OO)N1CCCl` (centres undefined) was tested, and the T/C (dose: 15.0 mg/kg/injection, schedule: Q01DX001 (ip), vehicle: Klucel (hydroxypropylcellulose) (HPC)) was 155 % of control, the T/C (dose: 23.0 mg/kg/injection, schedule: Q01DX001 (ip), vehicle: Klucel (hydroxypropylcellulose) (HPC)) was 158 % of control and the T/C (dose: 34.0 mg/kg/injection, schedule: Q01DX001 (ip), vehicle: Klucel (hydroxypropylcellulose) (HPC)) was 175 % of control. For the same compound, the T/C [5] was 188 % of control and 196 % of control, the T/C (dose: 75.0 mg/kg/injection, schedule: Q01DX001 (ip), vehicle: Klucel (hydroxypropylcellulose) (HPC)) was 276 % of control and the T/C [6] was 182 % of control. For the same compound, the T/C (dose: 200.0 mg/kg/injection, schedule: Q01DX001 (ip), vehicle: Klucel (hydroxypropylcellulose) (HPC)) was 196 % of control and the T/C (dose: 400.0 mg/kg/injection, schedule: Q01DX001 (ip), vehicle: Klucel (hydroxypropylcellulose) (HPC)) was 95 % of control.
`Cc1cccc(N2C(=O)CSC2=S)c1` was tested, and the T/C (dose: 25.0 mg/kg/injection, schedule: Q01DX009 (ip), vehicle: saline with Tween-80) was 90 % of control and the T/C [15] was 92 % of control.
With `CCOP(=O)(OCC)c1ccc(N=Cc2cnc3nc(NC(C)=O)[nH]c(=O)c3n2)cc1` the T/C (dose: 100.0 mg/kg/injection, schedule: Q01DX001 (ip), vehicle: other) was 109 % of control, the T/C (dose: 200.0 mg/kg/injection, schedule: Q01DX001 (ip), vehicle: other) was 112 % of control and the T/C (dose: 400.0 mg/kg/injection, schedule: Q01DX001 (ip), vehicle: other) was 101 % of control.
`O=[Se](c1ccccc1)c1ccccc1` was tested, and the T/C (dose: 25.0 mg/kg/injection, schedule: Q04DX002 (ip), vehicle: Klucel (hydroxypropylcellulose) (HPC)) was 103 % of control, the T/C (dose: 50.0 mg/kg/injection, schedule: Q04DX002 (ip), vehicle: Klucel (hydroxypropylcellulose) (HPC)) was 94 % of control and the T/C (dose: 100.0 mg/kg/injection, schedule: Q04DX002 (ip), vehicle: Klucel (hydroxypropylcellulose) (HPC)) was 87 % of control.
In the case of `CC(=O)OCc1cc(=O)c(OC(C)=O)co1`, the T/C [2] is reported as 112 % of control, the T/C [3] is reported as 96 % of control and the T/C [4] is reported as 98 % of control.
